# From ChEMBL document CHEMBL3044945, “Synthesis of 1,3,5-trisubstituted pyrazoline nucleus containing compounds and screening for antimicrobial activity” (2012)
# Key:
# Type in all cases: functional
# Escherichia coli [1] = test: Antibacterial activity against Escherichia coli MTCC 1573 at 1250 ug/ml after 48 hr by cup-plate method; settings: MTCC 1573, 48 h, read-out: DIZ
# Pseudomonas fluorescens [2] = test: Antibacterial activity against Pseudomonas fluorescens MTCC 2421 at 500 ug/ml after 48 hr by cup-plate method; settings: MTCC 2421, 48 h, read-out: DIZ
# Bacillus pumilus [3] = test: Antibacterial activity against Bacillus pumilus MTCC 1456 at 250 ug/ml after 48 hr by cup-plate method; settings: MTCC 1456, 48 h, read-out: DIZ
# Pseudomonas fluorescens [4] = test: Antibacterial activity against Pseudomonas fluorescens MTCC 2421 at 750 ug/ml after 48 hr by cup-plate method; settings: MTCC 2421, 48 h, read-out: DIZ
# Bacillus subtilis [5] = test: Antibacterial activity against Bacillus subtilis MTCC 441 at 250 ug/ml after 48 hr by cup-plate method; settings: MTCC 441, 48 h, read-out: DIZ
# Pseudomonas aeruginosa [6] = test: Antibacterial activity against Pseudomonas aeruginosa MTCC 424 at 750 ug/ml after 48 hr by cup-plate method; settings: MTCC 424, 48 h, read-out: DIZ
# Penicillium chrysogenum [7] = test: Antifungal activity against Penicillium chrysogenum MTCC 161 at 1000 ug/ml after 48 hr by cup-plate method; settings: MTCC 161, 48 h, read-out: DIZ
# Staphylococcus aureus [8] = test: Antibacterial activity against Staphylococcus aureus MTCC 1430 at 1000 ug/ml after 48 hr by cup-plate method; settings: MTCC 1430, 48 h, read-out: DIZ
# Bacillus subtilis [9] = test: Antibacterial activity against Bacillus subtilis MTCC 441 at 750 ug/ml after 48 hr by cup-plate method; settings: MTCC 441, 48 h, read-out: DIZ
# Bacillus pumilus [10] = test: Antibacterial activity against Bacillus pumilus MTCC 1456 at 750 ug/ml after 48 hr by cup-plate method; settings: MTCC 1456, 48 h, read-out: DIZ
# Escherichia coli [11] = test: Antibacterial activity against Escherichia coli MTCC 1573 at 500 ug/ml after 48 hr by cup-plate method; settings: MTCC 1573, 48 h, read-out: DIZ
# Pseudomonas aeruginosa [12] = test: Antibacterial activity against Pseudomonas aeruginosa MTCC 424 at 1250 ug/ml after 48 hr by cup-plate method; settings: MTCC 424, 48 h, read-out: DIZ
# Pseudomonas aeruginosa [13] = test: Antibacterial activity against Pseudomonas aeruginosa MTCC 424 after 24 to 48 hr by tube dilution method
# Escherichia coli [14] = test: Antibacterial activity against Escherichia coli MTCC 1573 at 100 ug/ml after 48 hr by cup-plate method; settings: MTCC 1573, 48 h, read-out: DIZ
# Bacillus subtilis [15] = test: Antibacterial activity against Bacillus subtilis MTCC 441 at 100 ug/ml after 48 hr by cup-plate method; settings: MTCC 441, 48 h, read-out: DIZ
# Bacillus pumilus [16] = test: Antibacterial activity against Bacillus pumilus MTCC 1456 at 1250 ug/ml after 48 hr by cup-plate method; settings: MTCC 1456, 48 h, read-out: DIZ
# Pseudomonas fluorescens [17] = test: Antibacterial activity against Pseudomonas fluorescens MTCC 2421 at 250 ug/ml after 48 hr by cup-plate method; settings: MTCC 2421, 48 h, read-out: DIZ
# Escherichia coli [18] = test: Antibacterial activity against Escherichia coli MTCC 1573 after 24 to 48 hr by tube dilution method
# Pseudomonas fluorescens [19] = test: Antibacterial activity against Pseudomonas fluorescens MTCC 2421 after 24 to 48 hr by tube dilution method
# Penicillium chrysogenum [20] = test: Antifungal activity against Penicillium chrysogenum MTCC 161 at 500 ug/ml after 48 hr by cup-plate method; settings: MTCC 161, 48 h, read-out: DIZ
# Bacillus subtilis [21] = test: Antibacterial activity against Bacillus subtilis MTCC 441 at 500 ug/ml after 48 hr by cup-plate method; settings: MTCC 441, 48 h, read-out: DIZ
# Bacillus pumilus [22] = test: Antibacterial activity against Bacillus pumilus MTCC 1456 at 100 ug/ml after 48 hr by cup-plate method; settings: MTCC 1456, 48 h, read-out: DIZ
# Escherichia coli [23] = test: Antibacterial activity against Escherichia coli MTCC 1573 at 250 ug/ml after 48 hr by cup-plate method; settings: MTCC 1573, 48 h, read-out: DIZ
# Staphylococcus aureus [24] = test: Antibacterial activity against Staphylococcus aureus MTCC 1430 after 24 to 48 hr by tube dilution method
# Aspergillus niger [25] = test: Antifungal activity against Aspergillus niger MTCC 2546 at 500 ug/ml after 48 hr by cup-plate method; settings: MTCC 2546, 48 h, read-out: DIZ
# Staphylococcus aureus [26] = test: Antibacterial activity against Staphylococcus aureus MTCC 1430 at 250 ug/ml after 48 hr by cup-plate method; settings: MTCC 1430, 48 h, read-out: DIZ
# Penicillium chrysogenum [27] = test: Antifungal activity against Penicillium chrysogenum MTCC 161 at 250 ug/ml after 48 hr by cup-plate method; settings: MTCC 161, 48 h, read-out: DIZ
# Aspergillus niger [28] = test: Antifungal activity against Aspergillus niger MTCC 2546 at 1000 ug/ml after 48 hr by cup-plate method; settings: MTCC 2546, 48 h, read-out: DIZ
# Staphylococcus aureus [29] = test: Antibacterial activity against Staphylococcus aureus MTCC 1430 at 750 ug/ml after 48 hr by cup-plate method; settings: MTCC 1430, 48 h, read-out: DIZ
# Bacillus subtilis [30] = test: Antibacterial activity against Bacillus subtilis MTCC 441 at 1000 ug/ml after 48 hr by cup-plate method; settings: MTCC 441, 48 h, read-out: DIZ
# Bacillus subtilis [31] = test: Antibacterial activity against Bacillus subtilis MTCC 441 after 24 to 48 hr by tube dilution method
# Pseudomonas fluorescens [32] = test: Antibacterial activity against Pseudomonas fluorescens MTCC 2421 at 1250 ug/ml after 48 hr by cup-plate method; settings: MTCC 2421, 48 h, read-out: DIZ
# Staphylococcus aureus [33] = test: Antibacterial activity against Staphylococcus aureus MTCC 1430 at 500 ug/ml after 48 hr by cup-plate method; settings: MTCC 1430, 48 h, read-out: DIZ
# Pseudomonas fluorescens [34] = test: Antibacterial activity against Pseudomonas fluorescens MTCC 2421 at 1000 ug/ml after 48 hr by cup-plate method; settings: MTCC 2421, 48 h, read-out: DIZ
# Micrococcus luteus [35] = test: Antibacterial activity against Micrococcus luteus MTCC 1538 at 750 ug/ml after 48 hr by cup-plate method; settings: MTCC 1538, 48 h, read-out: DIZ
# Aspergillus niger [36] = test: Antifungal activity against Aspergillus niger MTCC 2546 at 1250 ug/ml after 48 hr by cup-plate method; settings: MTCC 2546, 48 h, read-out: DIZ
# Micrococcus luteus [37] = test: Antibacterial activity against Micrococcus luteus MTCC 1538 at 500 ug/ml after 48 hr by cup-plate method; settings: MTCC 1538, 48 h, read-out: DIZ
# Pseudomonas aeruginosa [38] = test: Antibacterial activity against Pseudomonas aeruginosa MTCC 424 at 1000 ug/ml after 48 hr by cup-plate method; settings: MTCC 424, 48 h, read-out: DIZ
# Micrococcus luteus [39] = test: Antibacterial activity against Micrococcus luteus MTCC 1538 at 1000 ug/ml after 48 hr by cup-plate method; settings: MTCC 1538, 48 h, read-out: DIZ
# Pseudomonas aeruginosa [40] = test: Antibacterial activity against Pseudomonas aeruginosa MTCC 424 at 250 ug/ml after 48 hr by cup-plate method; settings: MTCC 424, 48 h, read-out: DIZ
# Micrococcus luteus [41] = test: Antibacterial activity against Micrococcus luteus MTCC 1538 at 1250 ug/ml after 48 hr by cup-plate method; settings: MTCC 1538, 48 h, read-out: DIZ
# Micrococcus luteus [42] = test: Antibacterial activity against Micrococcus luteus MTCC 1538 after 24 to 48 hr by tube dilution method
# Pseudomonas aeruginosa [43] = test: Antibacterial activity against Pseudomonas aeruginosa MTCC 424 at 500 ug/ml after 48 hr by cup-plate method; settings: MTCC 424, 48 h, read-out: DIZ
# Bacillus pumilus [44] = test: Antibacterial activity against Bacillus pumilus MTCC 1456 at 500 ug/ml after 48 hr by cup-plate method; settings: MTCC 1456, 48 h, read-out: DIZ
# Aspergillus niger [45] = test: Antifungal activity against Aspergillus niger MTCC 2546 at 100 ug/ml after 48 hr by cup-plate method; settings: MTCC 2546, 48 h, read-out: DIZ
smiles,measurement,setting,value
O=[N+]([O-])c1ccc(C2CC(c3cccc4ccccc34)=NN2c2ccccc2[N+](=O)[O-])cc1 (stereo not given),zone of inhibition at 1250 µg/mL,Escherichia coli [1],20 mm
same,zone of inhibition at 500 µg/mL,Pseudomonas fluorescens [2],13 mm
same,zone of inhibition at 250 µg/mL,Bacillus pumilus [3],11 mm
same,zone of inhibition at 750 µg/mL,Pseudomonas fluorescens [4],18 mm
same,zone of inhibition at 250 µg/mL,Bacillus subtilis [5],13 mm
same,zone of inhibition at 750 µg/mL,Pseudomonas aeruginosa [6],16 mm
same,zone of inhibition at 1000 µg/mL,Penicillium chrysogenum [7],24 mm
same,zone of inhibition at 1000 µg/mL,Staphylococcus aureus [8],13 mm
same,zone of inhibition at 750 µg/mL,Bacillus subtilis [9],15 mm
same,zone of inhibition at 750 µg/mL,Bacillus pumilus [10],18 mm
same,zone of inhibition at 500 µg/mL,Escherichia coli [11],11 mm
same,zone of inhibition at 1250 µg/mL,Pseudomonas aeruginosa [12],18 mm
same,MIC,Pseudomonas aeruginosa [13],150 µg/mL
same,zone of inhibition at 100 µg/mL,Escherichia coli [14],9 mm
same,zone of inhibition at 100 µg/mL,Bacillus subtilis [15],12 mm
same,zone of inhibition at 1250 µg/mL,Bacillus pumilus [16],25 mm
same,zone of inhibition at 250 µg/mL,Pseudomonas fluorescens [17],11 mm
same,MIC,Escherichia coli [18],30 µg/mL
same,MIC,Pseudomonas fluorescens [19],30 µg/mL
same,zone of inhibition at 500 µg/mL,Penicillium chrysogenum [20],15 mm
same,zone of inhibition at 500 µg/mL,Bacillus subtilis [21],14 mm
same,zone of inhibition at 100 µg/mL,Bacillus pumilus [22],10 mm
same,zone of inhibition at 250 µg/mL,Escherichia coli [23],10 mm
same,MIC,Staphylococcus aureus [24],50 µg/mL
same,zone of inhibition at 500 µg/mL,Aspergillus niger [25],12 mm
same,zone of inhibition at 250 µg/mL,Staphylococcus aureus [26],9 mm
same,zone of inhibition at 250 µg/mL,Penicillium chrysogenum [27],14 mm
same,zone of inhibition at 1000 µg/mL,Aspergillus niger [28],23 mm
same,zone of inhibition at 750 µg/mL,Staphylococcus aureus [29],12 mm
same,zone of inhibition at 1000 µg/mL,Bacillus subtilis [30],16 mm
same,MIC,Bacillus subtilis [31],19 µg/mL
same,zone of inhibition at 1250 µg/mL,Pseudomonas fluorescens [32],24 mm
same,zone of inhibition at 500 µg/mL,Staphylococcus aureus [33],10 mm
same,zone of inhibition at 1000 µg/mL,Pseudomonas fluorescens [34],21 mm
same,zone of inhibition at 750 µg/mL,Micrococcus luteus [35],13 mm
same,zone of inhibition at 1250 µg/mL,Aspergillus niger [36],25 mm
same,zone of inhibition at 500 µg/mL,Micrococcus luteus [37],9 mm
same,zone of inhibition at 1000 µg/mL,Pseudomonas aeruginosa [38],17 mm
same,zone of inhibition at 1000 µg/mL,Micrococcus luteus [39],15 mm
same,zone of inhibition at 250 µg/mL,Pseudomonas aeruginosa [40],14 mm
same,zone of inhibition at 1250 µg/mL,Micrococcus luteus [41],17 mm
same,MIC,Micrococcus luteus [42],30 µg/mL
same,zone of inhibition at 500 µg/mL,Pseudomonas aeruginosa [43],15 mm
same,zone of inhibition at 500 µg/mL,Bacillus pumilus [44],12 mm
same,zone of inhibition at 100 µg/mL,Aspergillus niger [45],10 mm
